Here are results for 2 compounds from ChEMBL document CHEMBL1201862, “PubChem BioAssay data set” (2004).

One assay concerns the target Beta-galactosidase (Escherichia coli, UniProt Q8VNN2). Description: PubChem AID 485352. It is filed as functional.
Assay [1] deals with T1, Heat shock factor protein 1 (Mus musculus, UniProt P38532).
T1 sequence (P38532 whole entry): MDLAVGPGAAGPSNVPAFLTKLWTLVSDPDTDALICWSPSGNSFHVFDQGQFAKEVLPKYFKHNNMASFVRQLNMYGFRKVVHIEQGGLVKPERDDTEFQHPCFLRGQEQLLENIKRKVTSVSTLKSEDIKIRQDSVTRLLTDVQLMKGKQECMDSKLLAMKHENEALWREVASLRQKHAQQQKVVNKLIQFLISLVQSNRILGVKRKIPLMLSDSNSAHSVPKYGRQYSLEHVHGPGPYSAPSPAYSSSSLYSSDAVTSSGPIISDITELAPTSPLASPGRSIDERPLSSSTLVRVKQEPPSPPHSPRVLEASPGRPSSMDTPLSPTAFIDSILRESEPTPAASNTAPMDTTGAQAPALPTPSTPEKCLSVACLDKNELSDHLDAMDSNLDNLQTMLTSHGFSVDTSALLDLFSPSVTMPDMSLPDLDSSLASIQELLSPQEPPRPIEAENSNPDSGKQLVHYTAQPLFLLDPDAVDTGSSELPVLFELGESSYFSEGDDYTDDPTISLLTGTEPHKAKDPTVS
Description: inhibition of MG132-induced HSE-luciferase signal, confirmation, cell-based, NIH3T3, luminescence, dose retest (AID 2382).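 Further: NIH3T3 fibroblasts with HSF1-driven luciferase reporter stressed by proteasome inhibitor MG132; luminescence from HSF1-driven luciferase expression after 8 hours of MG132 stress.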 It is filed as functional.

Assay [2] deals with Type-1 angiotensin II receptor (Homo sapiens, UniProt P30556). As to the kind of experiment: AT1 receptor antagonists, dose response, selectivity assay for APJ receptor antagonist project, cell-based, uHTS hits (AID 463214).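 Further: antagonist potency against angiotensin II stimulated AT1 response.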 It is filed as functional.
Assay [3] in a line: THP-1 cell cytotoxicity, dose response, cytotoxicity control for non-replicating M. tuberculosis project (AID 489025). It is filed as functional.
Assay [4] is described as follows: HepG2 cell cytotoxicity, dose response, cytotoxicity control for non-replicating M. tuberculosis project (AID 489018). It is filed as functional. The following applies: Mycobacterium tuberculosis.
A short description of assay [5]: Vero E6 cell cytotoxicity, dose response, cytotoxicity control for non-replicating M. tuberculosis project, secondary assay (AID 492998). It is filed as functional, VeroE6. To be noted: Vero C1008.
A further assay in a line: cells. It is filed as functional.
A further assay has as its system CHO. Description: cytotoxicity in TLR9-MyD88 CHO cells, dose response, cytotoxicity control for TLR9-MyD88 binding inhibitor project, cell-based, luminescence (AID 588339).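 Further: CHO cells stably coexpressing TLR9 and MyD88 fusions from primary screen; compound exposure lasted 48 hours before viability readout.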 To be noted: Cricetulus griseus. It is filed as functional, hamster.
The target of assay [6] is Heat shock protein HSP 90-alpha (Homo sapiens, UniProt P07900). It is filed as functional, organism-based.
In the next assay the target is Beta Lactamase (Pseudomonas aeruginosa, UniProt Q932Y6). Description: beta-lactamase reporter inhibitor potency, dose response, artefact control for TLR9-MyD88 binding inhibitor project, BLA reporter cells, FRET fluorescence (AID 588341).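 Further: cell based assay in CHO-K1 cells stably expressing beta-lactamase.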 It is filed as cell-based.
A further assay relates to INS1. Description: beta cell apoptosis inhibitors, cytokine rescue, dose response, luminescence, retest (AID 449756).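 Further: cell death triggered by IL-1 beta plus TNF-alpha plus IFN-gamma mixture; protective hits raise ATP signal compared with cytokine alone wells.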 It is filed as functional, cell-based. The following applies: Rattus norvegicus.
Assay [7] in a line: Fluorescence-based cell-based high throughput dose response assay for inhibitors of the interaction of nucleotide-binding oligomerization domain containing 2 (NOD2) and the receptor-interacting serine-threonine kinase 2 (RIPK2). The following applies: Homo sapiens. It is filed as functional.
A further assay concerns the target Paired box protein Pax-8 (Homo sapiens, UniProt Q06710). Description: inhibitors of PAX8-driven TPO luciferase reporter, dose response, RMG-I cells, cherry-pick (AID 687027).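 Further: luciferase reporter driven by Pax8 target thyroperoxidase promoter measured by SteadyGlo luminescence.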 It is filed as functional, cell-based. Background: A reporter such as luciferase makes a cellular process visible.
Assay [8] is described as follows: non-specific cell cytotoxicity, dose response, cytotoxicity control for PAX8 inhibitor project, plate reader, dry powder samples (AID 743021). It is filed as functional, cell-based.
The subject of a further assay is HEK293. Description: inhibitors of LMP1-driven NF-kB reporter, dose response, cell-based, HEK293, luciferase, cherry-pick (AID 588343). It is filed as functional. To be noted: Homo sapiens.
In assay [9] the target is T2, Replicative DNA helicase DnaB (Mycobacterium tuberculosis, UniProt P9WMR3).
T2 sequence (P9WMR3 whole entry): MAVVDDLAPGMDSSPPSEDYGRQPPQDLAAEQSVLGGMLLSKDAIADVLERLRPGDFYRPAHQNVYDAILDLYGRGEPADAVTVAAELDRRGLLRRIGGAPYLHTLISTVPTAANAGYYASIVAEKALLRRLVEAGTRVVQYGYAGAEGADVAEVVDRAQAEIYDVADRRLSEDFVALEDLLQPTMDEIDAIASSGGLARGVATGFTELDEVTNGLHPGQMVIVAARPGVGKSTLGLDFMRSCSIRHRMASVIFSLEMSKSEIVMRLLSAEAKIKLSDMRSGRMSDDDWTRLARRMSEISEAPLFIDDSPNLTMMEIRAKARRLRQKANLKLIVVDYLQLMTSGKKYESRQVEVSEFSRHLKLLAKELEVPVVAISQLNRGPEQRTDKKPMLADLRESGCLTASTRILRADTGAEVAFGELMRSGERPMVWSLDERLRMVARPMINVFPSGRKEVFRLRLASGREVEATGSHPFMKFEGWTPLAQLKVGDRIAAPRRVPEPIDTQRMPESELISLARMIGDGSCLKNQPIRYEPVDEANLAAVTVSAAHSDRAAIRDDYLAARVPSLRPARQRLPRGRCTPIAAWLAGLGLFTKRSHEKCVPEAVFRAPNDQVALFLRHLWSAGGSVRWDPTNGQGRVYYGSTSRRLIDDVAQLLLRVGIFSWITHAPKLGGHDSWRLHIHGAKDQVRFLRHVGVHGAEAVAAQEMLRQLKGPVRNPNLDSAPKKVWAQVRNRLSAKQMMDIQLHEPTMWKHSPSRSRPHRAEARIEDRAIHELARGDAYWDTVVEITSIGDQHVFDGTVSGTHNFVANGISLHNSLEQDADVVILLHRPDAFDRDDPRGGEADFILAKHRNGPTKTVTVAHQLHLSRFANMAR
Description: DnaB intein splicing inhibitors, dose response, biochemical, cell-free fluorescence (AID 449749). It is filed as functional.

The subject of the next assay is Vero. Description: Vero cell cytotoxicity, cytotoxicity control for flavivirus capping enzyme inhibitors (AID 588742). It is filed as functional. To be noted: Chlorocebus sabaeus.
For assay [10], the target named is Latent membrane protein 1 (Human herpesvirus 4 (strain B95-8), UniProt P03230). Description: TES1-eGFP NF-kB reporter inhibition versus Tet-On dsRED, dose response, selectivity assay for LMP1 NF-kB inhibitor project, imaging, HEK293T, dual-color eGFP/dsRED, cherry-picks (AID 588398). It is filed as functional, cell-based.
The target of another assay is T3, Protein RecA (Mycobacterium tuberculosis, UniProt P9WHJ3).
T3 sequence (P9WHJ3 whole entry): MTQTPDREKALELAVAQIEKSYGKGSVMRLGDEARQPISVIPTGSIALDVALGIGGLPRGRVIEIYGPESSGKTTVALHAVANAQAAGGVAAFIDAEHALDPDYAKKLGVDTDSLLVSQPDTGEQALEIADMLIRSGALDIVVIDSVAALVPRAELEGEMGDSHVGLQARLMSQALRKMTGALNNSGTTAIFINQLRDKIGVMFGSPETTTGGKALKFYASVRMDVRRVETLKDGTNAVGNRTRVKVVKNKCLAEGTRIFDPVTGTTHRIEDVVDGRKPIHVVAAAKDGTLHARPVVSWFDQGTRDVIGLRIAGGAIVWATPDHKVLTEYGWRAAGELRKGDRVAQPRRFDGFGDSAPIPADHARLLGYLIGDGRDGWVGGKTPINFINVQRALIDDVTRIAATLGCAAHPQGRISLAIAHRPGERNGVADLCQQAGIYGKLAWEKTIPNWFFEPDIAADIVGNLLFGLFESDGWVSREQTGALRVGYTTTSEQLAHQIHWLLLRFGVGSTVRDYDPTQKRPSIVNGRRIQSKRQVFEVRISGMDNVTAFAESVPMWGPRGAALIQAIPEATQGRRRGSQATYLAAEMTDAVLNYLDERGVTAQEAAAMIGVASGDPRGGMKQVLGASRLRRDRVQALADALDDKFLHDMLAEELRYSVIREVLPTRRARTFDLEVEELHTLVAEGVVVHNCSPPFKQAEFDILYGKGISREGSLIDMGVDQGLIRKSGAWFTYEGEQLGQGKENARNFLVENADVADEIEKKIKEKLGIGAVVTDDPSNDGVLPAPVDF
As to the kind of experiment: Fluorescence Cell-Free Homogeneous Dose Retest to Identify Inhibitors of RecA-Intein Splicing Activity. [Related pubchem assays (depositor defined):AID2097, AID2223, AID489010, AID492950]. It is filed as functional.

Another assay concerns the target Genome polyprotein (dengue virus type 2, UniProt P29990). As to the kind of experiment: Dengue-2 NS5 methyltransferase inhibitors, primary screen, biochemical, confirmation dose response (AID 588689). It is filed as functional.
For assay [11], the target named is T4, Long-chain-fatty-acid--AMP ligase FadD28 (Mycobacterium tuberculosis, UniProt P9WQ59).
T4 sequence (P9WQ59 whole entry): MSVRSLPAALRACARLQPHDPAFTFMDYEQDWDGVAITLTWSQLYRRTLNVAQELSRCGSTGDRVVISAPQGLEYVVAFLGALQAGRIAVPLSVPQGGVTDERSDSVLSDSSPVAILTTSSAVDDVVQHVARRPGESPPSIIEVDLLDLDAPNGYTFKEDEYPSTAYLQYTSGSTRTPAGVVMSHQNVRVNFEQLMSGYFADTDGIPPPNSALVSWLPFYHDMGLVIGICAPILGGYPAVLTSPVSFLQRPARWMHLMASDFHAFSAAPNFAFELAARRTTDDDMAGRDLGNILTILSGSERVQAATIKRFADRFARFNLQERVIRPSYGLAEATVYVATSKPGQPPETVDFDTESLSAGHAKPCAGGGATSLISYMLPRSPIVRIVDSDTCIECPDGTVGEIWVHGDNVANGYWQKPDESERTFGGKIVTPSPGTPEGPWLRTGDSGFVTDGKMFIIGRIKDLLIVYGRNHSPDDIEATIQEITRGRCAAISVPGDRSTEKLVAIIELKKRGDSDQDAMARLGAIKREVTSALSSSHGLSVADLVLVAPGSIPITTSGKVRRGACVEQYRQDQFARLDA
As to the kind of experiment: Fluorescence polarization aasay to screen for inhibitors that compete for the binding of FadD28 to a bisubstrate Measured in Biochemical System Using Plate Reader - 2147-01_Inhibitor_Dose_CherryPick_Activity. It is filed as functional, Mycobacterium tuberculosis H37Rv. On the technique in general: Fluorescence polarisation rises when a labelled molecule tumbles more slowly, as on binding a larger partner.

Calls of active or inactive are those of the source. Some results are limits rather than exact numbers.

Chain of Latent membrane protein 1 (P03230 whole entry): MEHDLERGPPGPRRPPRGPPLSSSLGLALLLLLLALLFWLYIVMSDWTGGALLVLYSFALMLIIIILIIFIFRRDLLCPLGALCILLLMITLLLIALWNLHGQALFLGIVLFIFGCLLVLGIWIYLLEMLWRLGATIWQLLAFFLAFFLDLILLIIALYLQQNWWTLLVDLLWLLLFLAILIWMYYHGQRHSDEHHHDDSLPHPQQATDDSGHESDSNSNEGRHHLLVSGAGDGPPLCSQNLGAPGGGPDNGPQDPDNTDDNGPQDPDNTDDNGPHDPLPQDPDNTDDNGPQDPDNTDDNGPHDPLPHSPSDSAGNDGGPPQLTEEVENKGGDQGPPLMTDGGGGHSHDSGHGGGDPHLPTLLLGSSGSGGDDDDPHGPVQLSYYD
Chain of Paired box protein Pax-8 (Q06710 whole entry): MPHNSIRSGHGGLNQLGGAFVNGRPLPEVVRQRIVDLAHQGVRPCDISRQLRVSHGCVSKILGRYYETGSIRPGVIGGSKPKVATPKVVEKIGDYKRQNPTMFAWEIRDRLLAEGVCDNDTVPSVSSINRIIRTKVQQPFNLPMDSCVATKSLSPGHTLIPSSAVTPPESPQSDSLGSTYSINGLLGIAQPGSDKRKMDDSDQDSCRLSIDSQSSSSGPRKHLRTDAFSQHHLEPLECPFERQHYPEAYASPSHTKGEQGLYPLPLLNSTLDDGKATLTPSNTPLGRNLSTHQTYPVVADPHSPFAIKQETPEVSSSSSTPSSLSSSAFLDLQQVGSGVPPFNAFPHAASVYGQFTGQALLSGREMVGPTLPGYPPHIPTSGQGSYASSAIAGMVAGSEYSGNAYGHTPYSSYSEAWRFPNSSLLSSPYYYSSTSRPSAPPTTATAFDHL
Chain of Genome polyprotein (P29990 2492-3391 limits assumed): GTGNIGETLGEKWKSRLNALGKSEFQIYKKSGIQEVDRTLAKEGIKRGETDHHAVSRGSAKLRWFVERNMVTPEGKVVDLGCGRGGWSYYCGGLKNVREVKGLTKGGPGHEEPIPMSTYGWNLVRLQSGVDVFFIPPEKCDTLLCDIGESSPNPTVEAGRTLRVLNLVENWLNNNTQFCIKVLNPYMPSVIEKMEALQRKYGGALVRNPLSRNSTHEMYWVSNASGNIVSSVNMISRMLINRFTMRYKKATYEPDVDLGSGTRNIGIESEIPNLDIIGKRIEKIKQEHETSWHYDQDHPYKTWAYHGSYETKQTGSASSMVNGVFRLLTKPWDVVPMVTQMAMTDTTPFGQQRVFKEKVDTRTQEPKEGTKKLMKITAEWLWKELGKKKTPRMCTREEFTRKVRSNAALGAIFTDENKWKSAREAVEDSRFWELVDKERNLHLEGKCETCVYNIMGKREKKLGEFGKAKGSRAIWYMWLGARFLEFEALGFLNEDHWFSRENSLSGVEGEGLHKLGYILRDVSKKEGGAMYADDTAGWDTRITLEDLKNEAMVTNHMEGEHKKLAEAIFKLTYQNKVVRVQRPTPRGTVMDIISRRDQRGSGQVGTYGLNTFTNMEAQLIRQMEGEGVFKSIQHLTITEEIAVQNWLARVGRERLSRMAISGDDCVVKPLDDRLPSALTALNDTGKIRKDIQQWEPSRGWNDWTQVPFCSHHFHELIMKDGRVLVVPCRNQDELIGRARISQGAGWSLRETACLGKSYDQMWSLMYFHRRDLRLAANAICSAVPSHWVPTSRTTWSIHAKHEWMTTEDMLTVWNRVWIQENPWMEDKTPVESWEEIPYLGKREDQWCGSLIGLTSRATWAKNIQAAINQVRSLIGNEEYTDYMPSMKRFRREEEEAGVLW
Chain of Beta Lactamase (Q932Y6 whole entry): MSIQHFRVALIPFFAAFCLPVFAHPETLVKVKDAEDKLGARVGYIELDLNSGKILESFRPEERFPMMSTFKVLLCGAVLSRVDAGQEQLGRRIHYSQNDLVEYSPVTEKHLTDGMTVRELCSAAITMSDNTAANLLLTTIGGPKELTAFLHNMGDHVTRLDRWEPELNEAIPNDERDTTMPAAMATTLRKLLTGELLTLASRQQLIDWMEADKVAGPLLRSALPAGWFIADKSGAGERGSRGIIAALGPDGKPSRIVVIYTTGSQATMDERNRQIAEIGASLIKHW
Chain of Type-1 angiotensin II receptor (P30556 whole entry): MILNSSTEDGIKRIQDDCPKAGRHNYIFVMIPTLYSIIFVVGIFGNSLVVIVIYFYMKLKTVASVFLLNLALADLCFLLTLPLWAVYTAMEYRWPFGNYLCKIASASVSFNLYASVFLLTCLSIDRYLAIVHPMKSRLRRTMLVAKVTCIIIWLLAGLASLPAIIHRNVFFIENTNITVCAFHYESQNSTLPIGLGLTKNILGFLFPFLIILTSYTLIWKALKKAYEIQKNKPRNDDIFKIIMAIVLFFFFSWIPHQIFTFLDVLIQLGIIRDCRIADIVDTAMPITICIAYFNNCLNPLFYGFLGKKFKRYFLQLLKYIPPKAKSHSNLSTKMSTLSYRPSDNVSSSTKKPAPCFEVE
Chain of Beta-galactosidase (Q8VNN2 whole entry): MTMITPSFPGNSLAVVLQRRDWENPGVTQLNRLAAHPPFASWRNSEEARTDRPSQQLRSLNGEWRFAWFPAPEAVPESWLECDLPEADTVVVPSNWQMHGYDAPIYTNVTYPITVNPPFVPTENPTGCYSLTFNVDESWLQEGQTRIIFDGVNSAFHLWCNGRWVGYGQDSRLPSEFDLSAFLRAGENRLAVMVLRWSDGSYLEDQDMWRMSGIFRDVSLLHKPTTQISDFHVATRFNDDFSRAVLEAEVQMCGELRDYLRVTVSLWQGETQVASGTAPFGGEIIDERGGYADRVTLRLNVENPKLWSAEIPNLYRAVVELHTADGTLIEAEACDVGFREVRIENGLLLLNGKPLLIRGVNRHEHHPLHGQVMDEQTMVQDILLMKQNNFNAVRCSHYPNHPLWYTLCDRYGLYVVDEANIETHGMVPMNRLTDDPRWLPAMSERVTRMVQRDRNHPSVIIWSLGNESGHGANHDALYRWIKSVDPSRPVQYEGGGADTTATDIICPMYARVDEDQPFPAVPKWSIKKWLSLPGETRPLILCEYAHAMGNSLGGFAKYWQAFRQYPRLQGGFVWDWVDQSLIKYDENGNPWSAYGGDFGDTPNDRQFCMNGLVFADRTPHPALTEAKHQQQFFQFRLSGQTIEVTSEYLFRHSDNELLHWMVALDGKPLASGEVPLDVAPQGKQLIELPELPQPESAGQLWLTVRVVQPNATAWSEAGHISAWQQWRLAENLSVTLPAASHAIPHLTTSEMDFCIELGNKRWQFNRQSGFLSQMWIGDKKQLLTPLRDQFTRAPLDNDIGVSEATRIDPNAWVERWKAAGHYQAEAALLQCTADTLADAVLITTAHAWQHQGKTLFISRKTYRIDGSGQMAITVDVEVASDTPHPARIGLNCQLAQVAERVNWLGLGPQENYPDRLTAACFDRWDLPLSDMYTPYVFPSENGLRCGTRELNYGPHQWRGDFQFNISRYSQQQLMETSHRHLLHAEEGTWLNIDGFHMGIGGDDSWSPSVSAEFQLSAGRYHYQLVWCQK

`O=C(C#Cc1ccccc1)c1ccco1`: the EC50 (as a rule, the concentration that produces a half-maximal response) at Beta-galactosidase is > 40 µM (inactive); in [1], 6.57 µM (active). In addition, the half-maximal inhibitory concentration (IC50) (usually the point on the concentration scale where inhibition reaches its midpoint) in assay [2] was 8.43 µM (active); in the assay “cells”, 1.32 µM (active); in the assay with CHO it was 1.82 µM (active); at Beta Lactamase, > 49.8 µM (inactive); in assay [7], 2.25 µM (active). The CC50 (usually the concentration giving 50% cytotoxicity) was 11 µM (active) in [3], 9.8 µM (active) in assay [4] and 7.89 µM (active) in assay [5]. Further, the AC50 (commonly the concentration giving half of the maximal activity seen) in [6] was 3.05 µM (active); with INS1 it was 6.11 µM (active); at Paired box protein Pax-8, 9.61 µM (active); in [8], 23.7 µM (active).

With `CCc1ccc(/C=C/C(=O)C2C(=O)c3ccccc3C2=O)cc1`, the AC50 with HEK293 was 4.59 µM (active); in assay [9], 51.1 µM (active); in assay [10], 27.4 µM (active); in [11] it was 80.4 µM (active). The CC50 in the assay with Vero was 34.7 µM (active). The EC50 on Protein RecA was 22.7 µM (active). Also, the IC50 on Genome polyprotein was 62.8 µM (active).
